Measurements published in US8168795B2, “Selective sphingosine-1-phosphate receptor antagonists” (Allergan, Inc., priority 2009, dated 2012).

Molecular target: S1P3 receptor (Homo sapiens, UniProt Q99500)
Assay: GTP γ35S binding assay, antagonist mode
Format: biochemical
Conditions: for IC50: antagonist assay, reaction mixture contained 10 nM S1P, membranes, read-out: S1P3 GTPγ^35S IC50
Description: B. Novel compounds were synthesized and tested for S1P3 activity using the GTP γ^35S binding assay. GTP γ^35S binding was measured in the medium containing (mM) HEPES 25, pH 7.4, MgCl2 10, NaCl 100, dithiothreitol 0.5, digitonin 0.003%, 0.2 nM GTP γ^35S, and 5 μg membrane protein in a volume of 150 μl. Test compounds were included in the concentration range from 0.08 to 5,000 nM unless indicated otherwise. Membranes were incubated with 100 μM 5′-adenylylimmidodiphosphate for 30 min, and subsequently with 10 μM GDP for 10 min on ice. Drug solutions and membrane were mixed, and then reactions were initiated by adding GTP γ^35S and continued for 30 min at 25° C. Reaction mixtures were filtered over Whatman GF/B filters under vacuum, and washed three times with 3 mL of ice-cold buffer (HEPES 25, pH7.4, MgCl2 10 and NaCl 100). Filters were dried and mixed with scintillant, and counted for ^35S activity using a β-counter. Agonist-induced GTP γ^35S binding was obtained by subtracting that in the absence of agonist. Binding data were analyzed using a non-linear regression method. In case of antagonist assay, the reaction mixture contained 10 nM S1P in the presence of test antagonist at concentrations ranging from 0.08 to 5000 nM.

Chain of S1P3 receptor (Q99500 whole entry): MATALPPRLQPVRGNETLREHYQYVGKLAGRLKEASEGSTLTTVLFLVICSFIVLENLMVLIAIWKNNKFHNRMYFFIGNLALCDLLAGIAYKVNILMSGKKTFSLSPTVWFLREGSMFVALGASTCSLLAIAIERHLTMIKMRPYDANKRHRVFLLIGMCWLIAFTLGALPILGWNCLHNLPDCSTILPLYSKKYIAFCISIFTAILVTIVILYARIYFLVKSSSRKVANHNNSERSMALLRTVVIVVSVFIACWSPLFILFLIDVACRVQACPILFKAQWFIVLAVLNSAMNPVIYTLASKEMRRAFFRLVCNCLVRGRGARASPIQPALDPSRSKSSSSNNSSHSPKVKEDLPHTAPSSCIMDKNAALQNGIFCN

| IC50 | activity of separated enantiomer (enantiomers of Compound-28 separated by chiral HPLC, assay not stated) | SMILES |
| --- | --- | --- |
| 4.7 nM |  | O=C(NC(Nc1ccc(Cl)cc1)c1cc2ccccc2o1)c1ccc(Br)cn1 (stereo not drawn) [Compound-10, N-(benzofuran-2-yl(4-chlorophenylamino)methyl)-5-bromopicolinamide] |
| 31 nM |  | O=C(NC(Nc1ccc(Cl)cc1)C(=O)c1ccc2ccccc2c1)c1ccc(Br)cn1 (stereo not drawn) [Compound-2, 5-bromo-N-(1-(4-chlorophenylamino)-2-(naphthalen-2-yl)-2-oxoethyl)picolinamide] |
| 1.3 nM | active enantiomer | O=C(NC(Nc1ccc(Cl)cc1)C(F)(F)C(F)(F)F)c1ccc(Br)cn1 (single isomer, unassigned; (-)) [Compound-32, (−)-5-bromo-N-(1-(4-chlorophenylamino)-2,2,3,3,3-pentafluoropropyl)picolinamide] |
| 10 nM |  | O=C(NC(Nc1ccc(Cl)cc1)C(=O)c1cccc2ccccc12)c1ccc(Br)cn1 (stereo not drawn) [Compound-1, 5-bromo-N-(1-(4-chlorophenylamino)-2-(naphthalen-1-yl)-2-oxoethyl)picolinamide] |
| 671 nM |  | CC1CCC(NC(NC(=O)c2ccc(Br)cc2)C(Cl)(Cl)Cl)CC1 (single isomer, unassigned) [Compound-49, 4-bromo-N-(2,2,2-trichloro-1-(4-methylcyclohexylamino)ethyl)benzamide] |
| 59 nM |  | O=C(NC(Nc1cnc(Cl)nc1)C(F)(F)C(F)(F)C(F)(F)C(F)(F)C(F)(F)C(F)F)c1ccc(Br)cn1 (stereo not drawn) [Compound-37, 5-Bromo-N-(1-(2-chloropyrimidin-5-ylamino)-2,2,3,3,4,4,5,5,6,6,7,7-dodecafluoroheptyl)picolinamide] |
| 56 nM |  | CCC(Cl)(Cl)C(NC(=O)c1ccc(Br)cn1)Nc1ccc(Cl)cc1 (stereo not drawn) [Compound-27, 5-Bromo-N-(2,2-dichloro-1-(4-chlorophenylamino)butyl)picolinamide] |
| 5.2 nM |  | COc1cccc(C(=O)C(NC(=O)c2ccc(Br)cn2)Nc2ccc(Cl)cc2)c1 (stereo not drawn) [Compound-3, 5-bromo-N-(1-(4-chlorophenylamino)-2-(3-methoxyphenyl)-2-oxoethyl)picolinamide] |
| 115 nM |  | O=C(NC(Nc1ccc(Cl)cc1)c1ccc(Cl)cc1)c1ccc(Br)cn1 (stereo not drawn) [Compound-7, 5-Bromo-N-((4-chlorophenyl)(4-chlorophenylamino)methyl)picolinamide] |
| 5.5 nM |  | O=C(NC(Nc1ccc(Cl)cc1)C(F)(F)C(F)(F)C(F)(F)C(F)(F)F)c1ccc(Br)cn1 (stereo not drawn) [Compound-29] |
| 2 nM |  | O=C(NC(Nc1cnc(Cl)nc1)C(F)(F)C(F)(F)F)c1ccc(Br)cn1 (stereo not drawn) [Compound-35, 5-Bromo-N-(1-(2-chloropyrimidin-5-ylamino)-2,2,3,3,3-pentafluoropropyl)picolinamide] |
